In BigSolDB 2.1:

Question: For Cc1c(C(=O)/C=C/c2ccccc2)[n+](=O)c2ccccc2n1[O-], which solubility (mole fraction) (in DMF, 283.15 K) is on record?
Answer: The solubility (mole fraction) was 0.00549.

Question: What about the solubility (mole fraction) (in DMF, 288.15 K) of the same molecule?
Answer: The solubility (mole fraction) was 0.00639.

Question: What about the solubility (mole fraction) (in DMF, 293.15 K) of the same molecule?
Answer: The solubility (mole fraction) was 0.00748.

Question: And the solubility (mole fraction) (in DMF, 298.15 K)?
Answer: Its solubility (mole fraction) is 0.00856.

Question: And the solubility (mole fraction) (in DMF, 303.15 K)?
Answer: Its solubility (mole fraction) is 0.00978.

Question: And the solubility (mole fraction) (in DMF, 308.15 K)?
Answer: The solubility (mole fraction) was 0.0111.

Question: What about the solubility (mole fraction) (in DMF, 313.15 K) of the same molecule?
Answer: The solubility (mole fraction) was 0.0127.

Question: What about the solubility (mole fraction) (in DMF, 318.15 K) of the same molecule?
Answer: The solubility (mole fraction) was 0.0145.

Question: And the solubility (mole fraction) (in DMF, 323.15 K)?
Answer: The solubility (mole fraction) was 0.0163.

Question: What about the solubility (mole fraction) (in DMF, 328.15 K) of the same molecule?
Answer: Its solubility (mole fraction) is 0.0187.

Question: What about the solubility (mole fraction) (in DMSO, 293.15 K) of the same molecule?
Answer: Its solubility (mole fraction) is 0.00722.

Question: What about the solubility (mole fraction) (in DMSO, 298.15 K) of the same molecule?
Answer: The solubility (mole fraction) was 0.00807.

Question: And the solubility (mole fraction) (in DMSO, 303.15 K)?
Answer: Its solubility (mole fraction) is 0.00913.

Question: What about the solubility (mole fraction) (in DMSO, 308.15 K) of the same molecule?
Answer: The solubility (mole fraction) was 0.0103.

Question: And the solubility (mole fraction) (in DMSO, 313.15 K)?
Answer: Its solubility (mole fraction) is 0.0117.

Question: What about the solubility (mole fraction) (in DMSO, 318.15 K) of the same molecule?
Answer: Its solubility (mole fraction) is 0.0132.

Question: What about the solubility (mole fraction) (in DMSO, 323.15 K) of the same molecule?
Answer: Its solubility (mole fraction) is 0.0149.

Question: And the solubility (mole fraction) (in DMSO, 328.15 K)?
Answer: Its solubility (mole fraction) is 0.0167.

Question: And the solubility (mole fraction) (in ethanol, 283.15 K)?
Answer: The solubility (mole fraction) was 9.81e-05.

Question: What about the solubility (mole fraction) (in ethanol, 288.15 K) of the same molecule?
Answer: Its solubility (mole fraction) is 0.000123.

Question: What about the solubility (mole fraction) (in ethanol, 293.15 K) of the same molecule?
Answer: Its solubility (mole fraction) is 0.000151.

Question: What about the solubility (mole fraction) (in ethanol, 298.15 K) of the same molecule?
Answer: Its solubility (mole fraction) is 0.00019.

Question: What about the solubility (mole fraction) (in ethanol, 303.15 K) of the same molecule?
Answer: Its solubility (mole fraction) is 0.000233.

Question: What about the solubility (mole fraction) (in ethanol, 308.15 K) of the same molecule?
Answer: The solubility (mole fraction) was 0.000288.

Question: What about the solubility (mole fraction) (in ethanol, 313.15 K) of the same molecule?
Answer: The solubility (mole fraction) was 0.000351.

Question: What about the solubility (mole fraction) (in ethanol, 318.15 K) of the same molecule?
Answer: Its solubility (mole fraction) is 0.000425.

Question: And the solubility (mole fraction) (in ethanol, 323.15 K)?
Answer: The solubility (mole fraction) was 0.000512.

Question: What about the solubility (mole fraction) (in ethanol, 328.15 K) of the same molecule?
Answer: The solubility (mole fraction) was 0.000611.

Question: And the solubility (mole fraction) (in isopropanol, 283.15 K)?
Answer: Its solubility (mole fraction) is 8.14e-05.

Question: What about the solubility (mole fraction) (in isopropanol, 288.15 K) of the same molecule?
Answer: The solubility (mole fraction) was 0.000104.

Question: And the solubility (mole fraction) (in isopropanol, 293.15 K)?
Answer: Its solubility (mole fraction) is 0.000133.

Question: What about the solubility (mole fraction) (in isopropanol, 298.15 K) of the same molecule?
Answer: The solubility (mole fraction) was 0.00017.

Question: What about the solubility (mole fraction) (in isopropanol, 303.15 K) of the same molecule?
Answer: The solubility (mole fraction) was 0.000217.

Question: What about the solubility (mole fraction) (in isopropanol, 308.15 K) of the same molecule?
Answer: The solubility (mole fraction) was 0.000278.

Question: And the solubility (mole fraction) (in isopropanol, 313.15 K)?
Answer: The solubility (mole fraction) was 0.000348.

Question: And the solubility (mole fraction) (in isopropanol, 318.15 K)?
Answer: The solubility (mole fraction) was 0.000437.

Question: And the solubility (mole fraction) (in isopropanol, 323.15 K)?
Answer: The solubility (mole fraction) was 0.000541.

Question: What about the solubility (mole fraction) (in isopropanol, 328.15 K) of the same molecule?
Answer: Its solubility (mole fraction) is 0.000668.

Question: And the solubility (mole fraction) (in water, 283.15 K)?
Answer: The solubility (mole fraction) was 2.49e-06.

Question: What about the solubility (mole fraction) (in water, 288.15 K) of the same molecule?
Answer: Its solubility (mole fraction) is 2.93e-06.

Question: What about the solubility (mole fraction) (in water, 293.15 K) of the same molecule?
Answer: The solubility (mole fraction) was 3.4e-06.

Question: And the solubility (mole fraction) (in water, 298.15 K)?
Answer: Its solubility (mole fraction) is 3.95e-06.

Question: And the solubility (mole fraction) (in water, 303.15 K)?
Answer: Its solubility (mole fraction) is 4.62e-06.

Question: What about the solubility (mole fraction) (in water, 308.15 K) of the same molecule?
Answer: The solubility (mole fraction) was 5.32e-06.

Question: What about the solubility (mole fraction) (in water, 313.15 K) of the same molecule?
Answer: The solubility (mole fraction) was 6.12e-06.

Question: And the solubility (mole fraction) (in water, 318.15 K)?
Answer: Its solubility (mole fraction) is 7e-06.

Question: What about the solubility (mole fraction) (in water, 323.15 K) of the same molecule?
Answer: Its solubility (mole fraction) is 7.96e-06.

Question: And the solubility (mole fraction) (in water, 328.15 K)?
Answer: Its solubility (mole fraction) is 9.03e-06.
